# Reference: the supplement of paper PMC10307832
# Columns and labels:
# Assay in all cases: relative viability (nuclei count vs DMSO), 5 days (fraction); higher = more cells survive
# [1] = compound: C=C(c1ccc(C(=O)O)cc1)c1cc2c(cc1C)C(C)(C)CCC2(C)C [Bexarotene]
# In short: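 For viability, nuclei in each treated well were divided by nuclei in vehicle wells and the median across plates was taken. Lung cancer cell lines in 1536-well plates were pinned with five library-drug doses (not always all listed) spaced by √10, cultured 5 days without medium change, and imaged at 4× after Hoechst staining, with plates passing only at control CV below 25% and at least one doubling.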
# [2] = compound: C=C(c1ccc(C(=O)O)cc1)c1cc2c(cc1C)C(C)(C)CCC2(C)C [Bexarotene] + CC1(C)CCC(c2ccc(Cl)cc2)=C(CN2CCN(c3ccc(C(=O)NS(=O)(=O)c4ccc(N[C@H](CCN5CCOCC5)CSc5ccccc5)c(S(=O)(=O)C(F)(F)F)c4)cc3)CC2)C1 [Navitoclax] (partner 0.5 µM)
# In short: (§1)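 Lung cancer cell lines were seeded in 1536-well plates and dosed by pin tool the next day, with either a single drug or a fixed anchor-drug dose combined with five library-drug doses (not always all listed) spaced in √10 steps. Five days later, one step fixed the cells and stained their nuclei (final 0.05% Triton X-100, 1% formaldehyde, 1 ug/ml Hoechst), and nuclei were counted on 4× images. Relative viability is the nuclei count in treated wells divided by the count in vehicle wells, and each value is the median of duplicate plates.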
# [3] = compound: C=C(c1ccc(C(=O)O)cc1)c1cc2c(cc1C)C(C)(C)CCC2(C)C [Bexarotene] + COc1cc2c(Oc3ccc(NC(=O)C4(C(=O)Nc5ccc(F)cc5)CC4)cc3F)ccnc2cc1OCCCN1CCOCC1 [Foretinib] (partner 0.25 µM)
# In short: as §1
# [4] = compound: C=C(c1ccc(C(=O)O)cc1)c1cc2c(cc1C)C(C)(C)CCC2(C)C [Bexarotene] + CS(=O)(=O)CCNCc1ccc(-c2ccc3ncnc(Nc4ccc(OCc5cccc(F)c5)c(Cl)c4)c3c2)o1 [Lapatinib] (partner 2 µM)
# In short: as §1
# [5] = compound: C=C(c1ccc(C(=O)O)cc1)c1cc2c(cc1C)C(C)(C)CCC2(C)C [Bexarotene] + CS(=O)(=O)N1CCN(Cc2cc3nc(-c4cccc5[nH]ncc45)nc(N4CCOCC4)c3s2)CC1 [Pictilisib] (partner 1 µM)
# In short: as §1
# [6] = compound: C=C(c1ccc(C(=O)O)cc1)c1cc2c(cc1C)C(C)(C)CCC2(C)C [Bexarotene] + C[C@@H](Oc1cc(-c2cnn(C3CCNCC3)c2)cnc1N)c1c(Cl)ccc(F)c1Cl [Crizotinib] (partner 1 µM)
# In short: as §1
# [7] = compound: C=C(c1ccc(C(=O)O)cc1)c1cc2c(cc1C)C(C)(C)CCC2(C)C [Bexarotene] + C[C@]1(O)C[C@@H](c2nc(-c3ccc4ccc(-c5ccccc5)nc4c3)c3c(N)nccn32)C1 [Linsitinib] (partner 1 µM)
# In short: as §1
# [8] = compound: C=C(c1ccc(C(=O)O)cc1)c1cc2c(cc1C)C(C)(C)CCC2(C)C [Bexarotene] + Cc1nc(NC(=O)N2CCC[C@H]2C(N)=O)sc1-c1ccnc(C(C)(C)C(F)(F)F)c1 [Alpelisib] (partner 2 µM)
# In short: as §1
# [9] = compound: C=C(c1ccc(C(=O)O)cc1)c1cc2c(cc1C)C(C)(C)CCC2(C)C [Bexarotene] + N=C(N)NC(=N)NCCc1ccccc1 [Phenformin] (partner 250 µM)
# In short: as §1
# [10] = compound: C=C(c1ccc(C(=O)O)cc1)c1cc2c(cc1C)C(C)(C)CCC2(C)C [Bexarotene] + Nc1ncn([C@H]2C[C@H](O)[C@@H](CO)O2)c(=O)n1 [Decitabine] (partner 2 µM)
# In short: as §1
# [11] = compound: C=C(c1ccc(C(=O)O)cc1)c1cc2c(cc1C)C(C)(C)CCC2(C)C [Bexarotene] + O=C(c1cc(Cc2n[nH]c(=O)c3ccccc23)ccc1F)N1CCN(C(=O)C2CC2)CC1 [Olaparib] (partner 8 µM)
# In short: as §1
cell line,measurement,setting,value
A549,relative viability,[1]; 0.08 µM,1.07
same,relative viability,[1]; 0.253 µM,0.99
same,relative viability,[1]; 0.8 µM,0.964
same,relative viability,[1]; 2.53 µM,0.933
same,relative viability,[1]; 8 µM,0.878
same,relative viability,[2]; first compound 0.08 µM,1.18
same,relative viability,[2]; first compound 0.253 µM,1.29
same,relative viability,[2]; first compound 0.8 µM,1.15
same,relative viability,[2]; first compound 2.53 µM,0.986
same,relative viability,[2]; first compound 8 µM,0.938
same,relative viability,[3]; first compound 0.08 µM,1.01
same,relative viability,[3]; first compound 0.253 µM,0.875
same,relative viability,[3]; first compound 0.8 µM,0.856
same,relative viability,[3]; first compound 2.53 µM,0.864
same,relative viability,[3]; first compound 8 µM,0.718
same,relative viability,[4]; first compound 0.08 µM,0.94
same,relative viability,[4]; first compound 0.253 µM,1.09
same,relative viability,[4]; first compound 0.8 µM,0.972
same,relative viability,[4]; first compound 2.53 µM,0.925
same,relative viability,[4]; first compound 8 µM,0.798
same,relative viability,[5]; first compound 0.08 µM,0.59
same,relative viability,[5]; first compound 0.253 µM,0.476
same,relative viability,[5]; first compound 0.8 µM,0.571
same,relative viability,[5]; first compound 2.53 µM,0.507
same,relative viability,[5]; first compound 8 µM,0.48
same,relative viability,[6]; first compound 0.08 µM,0.736
same,relative viability,[6]; first compound 0.253 µM,0.793
same,relative viability,[6]; first compound 0.8 µM,0.65
same,relative viability,[6]; first compound 2.53 µM,0.669
same,relative viability,[6]; first compound 8 µM,0.594
same,relative viability,[7]; first compound 0.08 µM,0.543
same,relative viability,[7]; first compound 0.253 µM,0.539
same,relative viability,[7]; first compound 0.8 µM,0.586
same,relative viability,[7]; first compound 2.53 µM,0.579
same,relative viability,[7]; first compound 8 µM,0.451
same,relative viability,[8]; first compound 0.08 µM,0.992
same,relative viability,[8]; first compound 0.253 µM,0.826
same,relative viability,[8]; first compound 0.8 µM,0.836
same,relative viability,[8]; first compound 2.53 µM,0.671
same,relative viability,[8]; first compound 8 µM,0.686
same,relative viability,[9]; first compound 0.08 µM,0.133
same,relative viability,[9]; first compound 0.253 µM,0.187
same,relative viability,[9]; first compound 0.8 µM,0.157
same,relative viability,[9]; first compound 2.53 µM,0.18
same,relative viability,[9]; first compound 8 µM,0.183
same,relative viability,[10]; first compound 0.08 µM,0.256
same,relative viability,[10]; first compound 0.253 µM,0.291
same,relative viability,[10]; first compound 0.8 µM,0.318
same,relative viability,[10]; first compound 2.53 µM,0.242
same,relative viability,[10]; first compound 8 µM,0.237
same,relative viability,[11]; first compound 0.08 µM,0.245
same,relative viability,[11]; first compound 0.253 µM,0.388
same,relative viability,[11]; first compound 0.8 µM,0.35
same,relative viability,[11]; first compound 2.53 µM,0.291
same,relative viability,[11]; first compound 8 µM,0.3
